Reference: EP0128338A1, “Silver pseudomonate, compositions containing it and its use in treating pseudomonal infections” (BEECHAM GROUP PLC, priority 1983, dated 1984)

System: Pseudomonas aeruginosa
Test: Minimum inhibitory concentrations (MICs) against 20 strains of Pseudomonas aeruginosa in Blood Agar Base
Type: cell-based
Experimental: • a) The minimum inhibitory concentrations (MICs) of silver pseudomonate and sodium pseudomonate were determined against 20 strains of Pseudomonas aeruginosa in Blood Agar Base. […] Typical results are presented in Table 2. [formula] [formula]

## Silver Pseudomonate A
20 strains of Pseudomonas aeruginosa, Blood Agar Base, comparison in words
  minimum inhibitory concentrations (MICs): more active than sodium pseudomonate against all strains tested
General statement in words
  activity against Pseudomonas organisms: active
